Holding throughout (format): cell-based
In assay [1] the target is T1, F876L mutant Androgen Receptor (AR-F876L) (Homo sapiens (Human), UniProt P10275, F877L). The experiment in a line: LNCaP-AR-F876L AG reporter assay (agonist mode). As to conditions: for Emax: read-out: LNCaP-AR-F876L AG MAX % Stim; for EC50: read-out: LNCaP-AR-F876L AG pEC50 (converted).
The target of assay [2] is T2, wild-type Androgen Receptor (AR-wt) (Homo sapiens (Human), UniProt P10275). The assay can be described thus: LNCaP-AR-wt ANT reporter assay (antagonist mode). As to conditions: for Emax: read-out: LNCaP-AR-wt ANT MAX % Inh; for IC50: read-out: LNCaP-AR-wt ANT pIC50 (converted). Background: In a reporter assay the amount or activity of a reporter protein is the signal.

The target in assay [3] is T1, F876L mutant Androgen Receptor (AR-F876L). The experiment in a line: LNCaP-AR-F876L ANT reporter assay (antagonist mode). Conditions: for Emax: read-out: LNCaP-AR-F876L ANT MAX % Inh; for IC50: read-out: LNCaP-AR-F876L ANT pIC50 (converted).
Assay [4] has as its target T2, wild-type Androgen Receptor (AR-wt). The experiment in a line: LNCaP-AR-wt AG reporter assay (agonist mode). Conditions: for Emax: read-out: LNCaP-AR-wt AG MAX % Stim; for EC50: read-out: LNCaP-AR-wt AG pEC50 (converted).
[5] abbreviates: agonist mode, maximum % stimulation over tested concentration range.
Setting [6] is: agonist mode, pEC50 = −Log10(EC50 in Molar).
Where [7] appears, read: antagonist mode, maximum % inhibition of R1881 control response over tested concentration range.
The mark [8] stands for this setting: antagonist mode, pIC50 = −Log10(IC50 in Molar).
Setting [9] is: maximum % stimulation (agonist response) over the tested concentration range.
Where [10] appears, read: maximum % inhibition of R1881 control response over the tested concentration range.

A value given as a limit tells only on which side of the number the result lay.

T1 sequence (P10275 whole entry F877L): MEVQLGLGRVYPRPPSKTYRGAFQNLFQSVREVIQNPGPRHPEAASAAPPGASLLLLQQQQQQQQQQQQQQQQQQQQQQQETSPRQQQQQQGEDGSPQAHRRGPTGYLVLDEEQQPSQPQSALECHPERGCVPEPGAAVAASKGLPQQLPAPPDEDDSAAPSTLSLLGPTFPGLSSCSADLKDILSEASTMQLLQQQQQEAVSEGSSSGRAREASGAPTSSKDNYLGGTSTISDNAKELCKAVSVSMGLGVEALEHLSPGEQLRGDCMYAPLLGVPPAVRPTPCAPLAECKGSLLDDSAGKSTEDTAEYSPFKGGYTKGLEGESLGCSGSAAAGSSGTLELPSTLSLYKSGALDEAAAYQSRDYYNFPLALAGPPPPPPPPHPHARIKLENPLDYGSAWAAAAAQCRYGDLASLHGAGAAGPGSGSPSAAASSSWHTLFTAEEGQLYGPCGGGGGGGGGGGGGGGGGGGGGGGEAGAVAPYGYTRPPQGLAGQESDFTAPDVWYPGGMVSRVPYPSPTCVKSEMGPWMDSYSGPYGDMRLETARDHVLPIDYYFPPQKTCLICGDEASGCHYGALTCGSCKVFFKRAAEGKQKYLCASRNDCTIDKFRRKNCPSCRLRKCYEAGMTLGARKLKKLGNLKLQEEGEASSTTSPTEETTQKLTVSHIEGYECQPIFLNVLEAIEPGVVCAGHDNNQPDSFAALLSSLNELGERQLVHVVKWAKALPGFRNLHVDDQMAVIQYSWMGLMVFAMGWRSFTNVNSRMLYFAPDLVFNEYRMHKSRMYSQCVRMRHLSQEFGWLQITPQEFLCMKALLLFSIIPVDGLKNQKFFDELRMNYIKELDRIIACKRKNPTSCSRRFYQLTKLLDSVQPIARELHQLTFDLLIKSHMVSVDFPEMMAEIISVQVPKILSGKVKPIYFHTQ
T2 sequence (P10275 whole entry): as the sequence (P10275 whole entry F877L) above, with L877F counted along it

Regarding `COc1cc(N2C(=O)C3(CCC3)N(c3ccc4nn(C5CCNCC5)cc4c3)C2=S)cnc1C#N` [Cpd 214, 3-methoxy-5-[5-oxo-8-[2-(4-piperidyl)indazol-5-yl]-7-thioxo-6,8-diazaspiro[3.4]octan-6-yl]pyridine-2-carbonitrile], the Emax in assay [1] (setting [5]) worked out at 0%; in assay [2] (setting [7]) it was 100%; in assay [3] (setting [7]) it was 99.9%; in assay [4] (setting [5]), 0.3%. The EC50 in assay [1] (setting [6]) and in assay [4] (setting [6]) was above 15100 nM in each case. The IC50 was 288 nM in assay [2] (setting [8]) and 219 nM in assay [3] (setting [8]).
Regarding `N#Cc1ncc(N2C(=O)C3(CCC3)N(c3ccc(CN4CCOCC4)cc3)C2=S)cc1C(F)(F)F` [Cpd 217, 5-[8-[4-(morpholinomethyl)phenyl]-5-oxo-7-thioxo-6,8-diazaspiro[3.4]octan-6-yl]-3-(trifluoromethyl)pyridine-2-carbonitrile], the Emax in assay [1] (setting [5]) stood at 0.1%; in assay [2] (setting [7]) it was 102%; in assay [3] (setting [7]), 100%; in assay [4] (setting [5]), 0.4%. The EC50 in assay [1] (setting [6]) and in assay [4] (setting [6]) was above 15100 nM in each case. The values for the IC50 in assay [2] (setting [8]) and in assay [3] (setting [8]) were 372 nM and 355 nM, respectively.
Take `CC(C)(C)OC(=O)N1CCC(n2cc3cc(N4C(=S)N(c5cnc(C#N)c(C(F)(F)F)c5)C(=O)C45CCC5)ccc3n2)CC1` [Cpd 121, tert-butyl 4-[5-[6-[6-cyano-5-(trifluoromethyl)-3-pyridyl]-5-oxo-7-thioxo-6,8-diazaspiro[3.4]octan-8-yl]indazol-2-yl]piperidine-1-carboxylate]: the EC50 in assay [1] (setting [6]) and in assay [4] (setting [6]) was above 15100 nM in each case. The Emax in assay [1] (setting [9]) is 0.5%; in assay [2] (setting [10]) it was 97.9%; in assay [3] (setting [10]), 99.8%; in assay [4] (setting [9]) it was -0.1%. Further, the figures for the IC50 in assay [2] (setting [8]) and in assay [3] (setting [8]) were 138 nM and 129 nM, respectively.
For the compound `CN1CCC(Oc2ccc(N3C(=S)N(c4cnc(C#N)c(C(F)(F)F)c4)C(=O)C34CCC4)cc2)C(F)(F)C1` (racemic) [Cpd 137, (R,S)-5-[8-[4-[(3,3-difluoro-1-methyl-4-piperidyl)oxy]phenyl]-5-oxo-7-thioxo-6,8-diazaspiro[3.4]octan-6-yl]-3-(trifluoromethyl)pyridine-2-carbonitrile], the EC50 in assay [1] (setting [6]) and in assay [4] (setting [6]) was above 15100 nM in each case. The Emax in assay [1] (setting [9]) amounted to 0.9%; in assay [2] (setting [10]) it was 102%; in assay [3] (setting [10]), 98.7%; in assay [4] (setting [9]), 0.3%. For the same compound, the IC50 is 49 nM in assay [2] (setting [8]) and 83.2 nM in assay [3] (setting [8]).
With `COCCn1ncc2cc(N3C(=S)N(c4cnc(C#N)c(OC)c4)C(=O)C34CCC4)ccc21` [Cpd 173, 3-methoxy-5-[8-[1-(2-methoxyethyl)indazol-5-yl]-5-oxo-7-thioxo-6,8-diazaspiro[3.4]octan-6-yl]pyridine-2-carbonitrile], the EC50 in assay [1] (setting [6]) and in assay [4] (setting [6]) was above 15100 nM each time. The Emax in assay [1] (setting [9]) turned out to be 0.1%; in assay [2] (setting [10]), 100%; in assay [3] (setting [10]), 100%; in assay [4] (setting [9]), 0.4%. In addition, the figures for the IC50 in assay [2] (setting [8]) and in assay [3] (setting [8]) were 437 nM and 186 nM, respectively.
Consider `C#CCN1CC(Oc2ccc(N3C(=S)N(c4cnc(C#N)c(C(F)(F)F)c4)C(=O)C34CCC4)cc2)C1` [Cpd 117, 5-(8-oxo-5-(4-((1-(prop-2-yn-1-yl)azetidin-3-yl)oxy)phenyl)-6-thioxo-5,7-diazaspiro[3.4]octan-7-yl)-3-(trifluoromethyl)picolinonitrile], for which the EC50 in assay [1] (setting [6]) and in assay [4] (setting [6]) was above 15100 nM in each case. Further, the Emax turned out to be 0.9% in assay [1] (setting [9]), 102% in assay [2] (setting [10]), 99.4% in assay [3] (setting [10]) and 0% in assay [4] (setting [9]). The IC50 is 97.7 nM in assay [2] (setting [8]) and 112 nM in assay [3] (setting [8]).
Consider `CN1CCC12CC(Oc1ccc(N3C(=S)N(c4cnc(C#N)c(C(F)(F)F)c4)C(=O)C34CCC4)cc1)C2` (stereo not shown) [Cpd 166, 5-[8-[4-[(3-methyl-3-azaspiro[3.3]heptan-6-yl)oxy]phenyl]-5-oxo-7-thioxo-6,8-diazaspiro[3.4]octan-6-yl]-3-(trifluoromethyl)pyridine-2-carbonitrile], for which the EC50 in assay [1] (setting [6]) and in assay [4] (setting [6]) was above 15100 nM each time. Besides, the Emax in assay [1] (setting [9]) stood at 0.1%; in assay [2] (setting [10]), 102%; in assay [3] (setting [10]) it was 101%; in assay [4] (setting [9]), 0.2%. Further, the IC50 is 331 nM in assay [2] (setting [8]) and 200 nM in assay [3] (setting [8]).
For the compound `N#Cc1ncc(N2C(=O)C3(CCC3)N(c3ccc(OC4CCNCC4(F)F)cc3)C2=S)cc1C(F)(F)F` (racemic) [Cpd 136, (R,S)-5-[8-[4-[(3,3-difluoro-4-piperidyl)oxy]phenyl]-5-oxo-7-thioxo-6,8-diazaspiro[3.4]octan-6-yl]-3-(trifluoromethyl)pyridine-2-carbonitrile], the EC50 in assay [1] (setting [6]) and in assay [4] (setting [6]) was above 15100 nM each time. Besides, the Emax was 0.3% in assay [1] (setting [9]), 105% in assay [2] (setting [10]), 102% in assay [3] (setting [10]) and -0.1% in assay [4] (setting [9]). Besides, the IC50 was 132 nM in assay [2] (setting [8]) and 126 nM in assay [3] (setting [8]).
Consider `N#Cc1ncc(N2C(=O)C3(CCC3)N(c3ccc4c(cnn4CC4CCNCC4)c3)C2=S)cc1C(F)(F)F` [Cpd 128, 5-(8-Oxo-5-(1-(piperidin-4-ylmethyl)-1H-indazol-5-yl)-6-thioxo-5,7-diazaspiro[3.4]octan-7-yl)-3-(trifluoromethyl)picolinonitrile], for which the EC50 in assay [1] (setting [6]) and in assay [4] (setting [6]) was above 15100 nM throughout. The Emax was 0.3% in assay [1] (setting [9]), 101% in assay [2] (setting [10]), 101% in assay [3] (setting [10]) and 0.2% in assay [4] (setting [9]). In addition, the values for the IC50 in assay [2] (setting [8]) and in assay [3] (setting [8]) were 1070 nM and 468 nM, respectively.
As for `CC(C)(C)OC(=O)N1CCN(Cc2ccc(N3C(=S)N(c4cnc(C#N)c(C(F)(F)F)c4)C(=O)C34CCC4)cc2)CC1` [Cpd 47, tert-butyl 4-[[4-[6-[6-cyano-5-(trifluoromethyl)-3-pyridyl]-5-oxo-7-thioxo-6,8-diazaspiro[3.4]octan-8-yl]phenyl]methyl]piperazine-1-carboxylate], the EC50 in assay [1] (setting [6]) and in assay [4] (setting [6]) was above 15100 nM throughout. Moreover, the Emax in assay [1] (setting [9]) worked out at 0.5%; in assay [2] (setting [10]) it was 100%; in assay [3] (setting [10]), 100%; in assay [4] (setting [9]), 0.7%. The values for the IC50 in assay [2] (setting [8]) and in assay [3] (setting [8]) were 316 nM and 145 nM, respectively.
With `N#Cc1ncc(N2C(=O)C3(CCC3)N(c3ccc(C4=CC5CCC(C4)N5)cc3)C2=S)cc1C(F)(F)F` (stereo not shown) [Cpd 116, 5-[8-[4-(8-azabicyclo[3.2.1]oct-3-en-3-yl)phenyl]-5-oxo-7-thioxo-6,8-diazaspiro[3.4]octan-6-yl]-3-(trifluoromethyl)pyridine-2-carbonitrile], in assay [1] (setting [6]), the “LNCaP-AR-F876L AG pEC50” value was below 4.82. Moreover, the Emax in assay [1] (setting [9]) was 0.8%; in assay [2] (setting [10]), 102%; in assay [3] (setting [10]) it was 102%; in assay [4] (setting [9]), 0.5%. For the same compound, the “LNCaP-AR-wt ANT pIC50” value in assay [2] (setting [8]) stood at 5.96. In addition, in assay [3] (setting [8]), the “LNCaP-AR-F876L ANT pIC50” value was determined as 6.01. Besides, the “LNCaP-AR-wt AG pEC50” value in assay [4] (setting [6]) is given as below 4.82.

Source of the values: patent publication US10981926B2 (Janssen Pharmaceutica NV, priority 2016, dated 2021).
